According to patent US11053234B2 (GlaxoSmithKline Intellectual Property Development Limited, priority 2016, dated 2021):

Target: T1, haematopoietic prostaglandin D synthase (H-PGDS) (Homo sapiens, UniProt O60760)
T1 construct: Full length human H-PGDS cDNA (Invitrogen Ultimate ORF 10H13026) was amplified by PCR; 6-His (N); TEV protease cleavage site (N); made in house; host or cells: E. coli BL21 (DE3*), vector pET22b+
Assay: H-PGDS RapidFire high throughput mass spectrometry assay (conversion of PGH2 to PGD2)
Format: biochemical
Settings: 10 nM H-PGDS, PGH2 formed in situ by COX-2 from arachidonic acid; read-out: Potency Range (mean pIC50) (converted)
Protocol: H-PGDS RapidFire™ High Throughput Mass Spectrometry Assay
The H-PGDS RapidFire™ mass spectrometric assay monitors conversion of prostaglandin H2 (PGH2) to prostaglandin D2 (PGD2) by haematopoietic prostaglandin D synthase (H-PGDS). In the assay format described here, the substrate (PGH2) is formed in situ by the action of cyclooxygenase-2 on arachidonic acid. This first step is set up to be fast, and generates a burst of PGH2 at ˜10 μM. The PGH2 is then further converted to PGD2 by the H-PGDS enzyme. […] Plates are then read on the RapidFire™ high throughput solid phase extraction system (Agilent) which incorporates a solid phase extraction step coupled to a triple quadrupole mass spectrometer (AB SCIEX). Relative levels of PGD2 and PGF2α, which acts as a surrogate for substrate, are measured and a percent conversion calculated.
Expression and Purification of H-PGDS Protein
Full length human H-PGDS cDNA (Invitrogen Ultimate ORF 10H13026) was amplified by PCR with the addition of a 5′ 6-His tag and TEV protease cleavage site. The PCR product was digested with Ndel and Xhol and ligated into pET22b+ (Merck Novagen®). Expression was carried out in E. coli strain BL21 (DE3*) using auto-induction Overnight Express™ Instant TB medium (Merck Novagen®) supplemented with 1% glycerol. The culture was first grown at 37° C. and the temperature was reduced to 25° C. when OD600 reached 2.0. Cells were harvested by centrifugation after a further 18 hr. 10 g of E. coli cell pellet was suspended to a total volume of 80 mL in lysis buffer (20 mM Tris-Cl pH 7.5, 300 mM NaCl, 20 mM imidazole, 5 mM β-mercaptoethanol, 10% glycerol). 1 mg/mL protease inhibitors (Protease Inhibitor Cocktail Set III, Merck Calbiochem®) and 1 mg/mL lysozyme were added to the cell suspension. The suspension was then sonicated for 5 min (UltraSonic Processor VCX 750, Cole-Parmer Instrument Co.) with a micro probe (50% amplitude, 10 sec on/off) and then centrifuged at 100,000 g for 90 min (at 4° C.). The supernatant was loaded onto a Ni-NTA HiTrap column (5 mL, GE Healthcare, pre-equilibrated in lysis buffer). The column was washed with 10 column volumes of lysis buffer and eluted with lysis buffer containing 500 mM imidazole. The pooled protein peak fractions were concentrated using a 10 kDa centrifugal filter at 3500 g and 4° C. (Amicon Ultra-15 centrifugal filter unit with Ultracel-10 membrane from Millipore). Further purification of the concentrated protein was carried out using gel filtration chromatography on a HiLoad 26/600 Superdex 75 preparative grade column (GE Healthcare Life Sciences) using 50 mM Tris pH 7.5, 50 mM NaCl, 1 mM dithiothreitol, 1 mM MgCl2. Fractions containing the protein were pooled, concentrated as described above, and stored at −80° C.
Expression and Purification of Cyclooxygenase-2 (COX-2) Protein
The full length human COX-2 gene (accession number L15326) was amplified by PCR to generate an EcoRI-HindIII fragment containing an in-frame FLAG tag. This was subcloned into pFastBac 1 (Invitrogen). The COX2 FLAG plasmid was recombined into the baculovirus genome according to the BAC-to-BAC protocol described by Invitrogen. Transfection into Spodoptera frugiperda (Sf9) insect cells was performed using Cellfectin (Invitrogen), according to the manufacturer's protocol. […] Cells were harvested using a continuous feed centrifuge run at 2500 g at a rate of approximately 2 L/min with cooling. The resultant cell slurry was re-centrifuged in pots (2500 g, 20 min, 4° C.) and the cell paste was stored at −80° C. […] The suspension was sonicated in 500 mL batches for 8×5 seconds at 10 u amplitude with the medium tip of an MSE probe sonicator and subsequently incubated at 4° C. for 90 min with gentle stirring. The lysate was centrifuged at 12000 rpm for 45 min at 4° C. in a Sorvall SLA1500 rotor. The supernatant (1400 mL) was added to 420 mL of 20 mM Tris-Cl pH 7.4, 150 mM NaCl, 0.1 mM EDTA to reduce the concentration of n-octyl-6-D-glucopyranoside to 1% w/v.

T1 sequence (O60760 whole entry): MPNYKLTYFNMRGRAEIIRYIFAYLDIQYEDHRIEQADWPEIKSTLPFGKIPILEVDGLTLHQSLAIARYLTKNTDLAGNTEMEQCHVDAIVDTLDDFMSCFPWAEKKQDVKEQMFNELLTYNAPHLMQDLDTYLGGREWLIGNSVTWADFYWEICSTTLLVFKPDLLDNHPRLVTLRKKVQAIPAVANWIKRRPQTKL

Structure (SMILES) | IC50
O=C(NC1CN(c2ncc(CO)cn2)C1)[C@H]1C[C@H](Oc2cc(F)cc3scnc23)C1 [Example 114, (trans)-3-((6-Fluorobenzo[d]thiazol-4-yl)oxy)-N-(1-(5-(hydroxymethyl)pyrimidin-2-yl)azetidin-3-yl)cyclobutanecarboxamide] | 10 to 79.4 nM
O=C(N[C@H]1CC[C@@H](NC(CO)C(F)(F)F)CC1)[C@H]1C[C@H](Oc2cc(F)cc3scnc23)C1 (mixture of isomers) [Example 125, Racemic (trans)-3-((6-Fluorobenzo[d]thiazol-4-yl)oxy)-N-((cis)-4-((1,1,1-trifluoro-3-hydroxypropan-2-yl)amino)cyclohexyl)cyclobutanecarboxamide] | 10 to 79.4 nM
CC(C)(O)[C@H]1CC[C@H](NC(=O)[C@H]2C[C@H](Oc3cccc4c(Br)coc34)C2)CC1 [Example 269, (trans)-3-((3-Bromobenzofuran-7-yl)oxy)-N-((trans)-4-(2-hydroxypropan-2-yl)cyclohexyl)cyclobutanecarboxamide] | 10 to 79.4 nM
COc1ccc(F)cc1O[C@H]1C[C@H](C(=O)NC2CC3(C2)CC(C(C)(C)O)C3)C1 (mixture of isomers) [Example 160, Racemic (trans)-3-(5-Fluoro-2-methoxyphenoxy)-N-(6-(2-hydroxypropan-2-yl)spiro[3.3]heptan-2-yl)cyclobutanecarboxamide] | < 10 nM
Cn1nc(C2CC2)cc1NC(=O)[C@H]1C[C@H](Oc2cccc3cccnc23)C1 [Example 214, (trans)-N-(3-Cyclopropyl-1-methyl-1H-pyrazol-5-yl)-3-(quinolin-8-yloxy)cyclobutanecarboxamide] | 100 to 1000 nM
CCn1nnnc1NC(=O)N1CC(Oc2cccc3scnc23)C1 [Example 325, 3-(Benzo[d]thiazol-4-yloxy)-N-(1-ethyl-1H-tetrazol-5-yl)azetidine-1-carboxamide] | 100 to 1000 nM
CCOC(=O)c1nnc(NC(=O)[C@H]2C[C@H](Oc3cccc4cccnc34)C2)[nH]1 [Example 176, Ethyl 5-((trans)-3-(quinolin-8-yloxy)cyclobutanecarboxamido)-4H-1,2,4-triazole-3-carboxylate] | 100 to 1000 nM
O=C(c1csc(NC(=O)[C@H]2C[C@H](Oc3cc(F)ccc3OC(F)F)C2)n1)C1CC1 [Example 32, (trans)-N-(4-(Cyclopropanecarbonyl)thiazol-2-yl)-3-(2-(difluoromethoxy)-5-fluorophenoxy)cyclobutanecarboxamide] | < 10 nM
O=C(NC1CN(c2nccc(Cl)n2)C1)[C@H]1C[C@H](Oc2cc(F)ccc2OC(F)F)C1 [Example 7, (trans)-N-(1-(4-Chloropyrimidin-2-yl)azetidin-3-yl)-3-(2-(difluoromethoxy)-5-fluorophenoxy)cyclobutanecarboxamide] | < 10 nM
CC(C)(O)[C@H]1CC[C@H](NC(=O)[C@H]2C[C@H](Oc3ccc(F)c4cccnc34)C2)CC1 [Example 292, (trans)-3-((5-Fluoroquinolin-8-yl)oxy)-N-((trans)-4-(2-hydroxypropan-2-yl)cyclohexyl)cyclobutanecarboxamide] | 100 to 1000 nM
O=C(NC1CN(c2ncc(F)cn2)C1)[C@H]1C[C@H](Oc2cc(F)ccc2OC(F)F)C1 [Example 8, (trans)-3-(2-(Difluoromethoxy)-5-fluorophenoxy)-N-(1-(5-fluoropyrimidin-2-yl)azetidin-3-yl)cyclobutanecarboxamide] | 10 to 79.4 nM
Cc1nccc(N2CC(NC(=O)[C@H]3C[C@H](Oc4cccc5scnc45)C3)C2)n1 [Example 50, (trans)-3-(Benzo[d]thiazol-4-yloxy)-N-(1-(2-methylpyrimidin-4-yl)azetidin-3-yl)cyclobutanecarboxamide] | 10 to 79.4 nM
C[C@H]1[C@@H](Oc2cccc3scnc23)CN1C(=O)N[C@H]1CC[C@H](C(C)(C)O)CC1 [Example 304, (2S,3S)-3-(Benzo[d]thiazol-4-yloxy)-N-((trans)-4-(2-hydroxypropan-2-yl)cyclohexyl)-2-methylazetidine-1-carboxamide] | 10 to 79.4 nM
CC(C)c1nsc(NC(=O)N2CC(Oc3cccc4scnc34)C2)n1 [Example 337, 3-(Benzo[d]thiazol-4-yloxy)-N-(3-isopropyl-1,2,4-thiadiazol-5-yl)azetidine-1-carboxamide] | < 10 nM
Cc1ccc(N2CC(NC(=O)N3CC(Oc4cc(F)cc5scnc45)C3)C2)nc1 [Example 232, 3-((6-Fluorobenzo[d]thiazol-4-yl)oxy)-N-(1-(5-methylpyridin-2-yl)azetidin-3-yl)azetidine-1-carboxamide] | 10 to 79.4 nM
O=C(NC1CCN(c2ccccn2)C1)[C@H]1C[C@H](Oc2cccc3scnc23)C1 (mixture of isomers) [Example 82, Racemic (trans)-3-(Benzo[d]thiazol-4-yloxy)-N-(1-(pyridin-2-yl)pyrrolidin-3-yl)cyclobutanecarboxamide] | 10 to 79.4 nM
CC(C)(O)[C@@H]1CC[C@@H](NC(=O)[C@H]2C[C@H](Oc3cccc4cccnc34)C2)CO1 (racemic) [Example 195, Racemic (trans)-N-((trans)-6-(2-Hydroxypropan-2-yl)tetrahydro-2H-pyran-3-yl)-3-(quinolin-8-yloxy)cyclobutanecarboxamide] | 100 to 1000 nM
CC(C)c1nnc(NC(=O)N2CC(Oc3cccc4scnc34)C2)o1 [Example 328, 3-(Benzo[d]thiazol-4-yloxy)-N-(5-isopropyl-1,3,4-oxadiazol-2-yl)azetidine-1-carboxamide] | 100 to 1000 nM
C=C(C)c1cnc(NC(=O)[C@H]2C[C@H](Oc3cccc4cccnc34)C2)s1 [Example 205, (trans)-N-(5-(Prop-1-en-2-yl)thiazol-2-yl)-3-(quinolin-8-yloxy)cyclobutanecarboxamide] | < 10 nM
CC(C)(O)[C@H]1CC[C@H](NC(=O)N2CC(Oc3cc(F)ccc3OC(F)F)C2)CC1 [Example 1, 3-(2-(Difluoromethoxy)-5-fluorophenoxy)-N-((trans)-4-(2-hydroxypropan-2-yl)cyclohexyl)azetidine-1-carboxamide] | 100 to 1000 nM
CC(=O)c1cnc(NC(=O)[C@H]2C[C@H](Oc3cccc4ccoc34)C2)s1 [Example 264, (trans)-N-(5-Acetylthiazol-2-yl)-3-(benzofuran-7-yloxy)cyclobutanecarboxamide] | 10 to 79.4 nM
Cc1nccc(N2CC(NC(=O)N3CC(Oc4cc(F)cc5scnc45)C3)C2)n1 [Example 122, 3-((6-Fluorobenzo[d]thiazol-4-yl)oxy)-N-(1-(2-methylpyrimidin-4-yl)azetidin-3-yl)azetidine-1-carboxamide] | 10 to 79.4 nM
O=C(Nc1ccccn1)[C@H]1C[C@H](Oc2cccc3cccnc23)C1 [Example 183, (trans)-N-(Pyridin-2-yl)-3-(quinolin-8-yloxy)cyclobutanecarboxamide] | 100 to 1000 nM
O=C(Nc1ccnc(C2CC2)n1)N1CC(Oc2cccc3scnc23)C1 [Example 312, 3-(Benzo[d]thiazol-4-yloxy)-N-(2-cyclopropylpyrimidin-4-yl)azetidine-1-carboxamide] | 10 to 79.4 nM
COC(=O)N1CCOC(CNC(=O)N2CC(Oc3cccc4scnc34)C2)C1 (racemic) [Example 94, Racemic Methyl 2-((3-(benzo[d]thiazol-4-yloxy)azetidine-1-carboxamido)methyl)morpholine-4-carboxylate] | 100 to 1000 nM
